# Data reported in patent US20250222146A1, “Radiopharmaceuticals Targeting Somatostatin Receptor 2 and Uses Thereof” (RayzeBio, Inc., priority 2023, published 2025).
# Numbered stars: 1 amine (or outer) side, 2 acyl side, 3 side chain; on linkers, the order of the positions; unused ones are H or OH. Square brackets hold non-standard residues; d marks the D form. Side chains are listed from the residue outwards. Peptide text beside a SMILES is read from it. * marks the point of attachment. ξ: configuration not given here. DOTA(Lu)NH(CH2)6NHCOCH2 = O=C(CN1CCN2CCN3CCN(CC1)CC(=O)[O][Lu]([O]C(=O)C2)[O]C(=O)C3)NCCCCCCNC(=O)C*; DOTA(Lu) = O=C1CN2CCN3CCN(CC(=O)*)CCN(CC2)CC(=O)[O][Lu]([O]1)[O]C(=O)C3; X4 = C[C@@H](c1ccccc1)[C@H](N[*:1])C(=O)[*:2]; ξDihydroorotoyl = O=C1CC(C(=O)*)NC(=O)N1; Phe(4-NH2) = Nc1ccc(C[C@H](N)C(=O)O)cc1; 3Pal = N[C@@H](Cc1cccnc1)C(=O)O; 4Pal = N[C@@H](Cc1ccncc1)C(=O)O; NMeOrn = CN[C@@H](CCCN)C(=O)O; NMehCys = CN[C@@H](CCS)C(=O)O; NMeK = CN[C@@H](CCCCN)C(=O)O; NMeC = CN[C@@H](CS)C(=O)O; NMeA = CN[C@@H](C)C(=O)O; Ahx = NCCCCCC(=O)O
# Target: SSTR2 (Homo sapiens, UniProt P30874)
# Test: SSTR binding affinity by radioligand binding competition assay ([125I]-Tyr11-Somatostatin, membrane extracts)
# Details: SSTR2 Ki, radioligand competition, [125I]-Tyr11-Somatostatin 0.1 nM, membrane extracts; Ki from IC50 by Cheng Prusoff
# Method: Macrocyclic peptides in this invention were tested for binding to SSTR protein by a radioligand binding competition assay. For radioligand binding assay, competition binding is performed in duplicate in the wells of a 96 well plate containing binding buffer (HEPES 25 mM pH 7.4, MgCl2 5 mM, CaCl2 1 mM, BSA 0.5%, Saponine 10 μg/ml)), membrane extracts (0.6 μg protein/well), radiotracer ([125I]-Tyr11-Somatostatin, Perkin Elmer NEX389) and test compound. Nonspecific binding is determined by co-incubation with 200-fold excess of cold competitor (SST28). The samples are incubated in a final volume of 0.1 ml for 60 min at room temperature and then filtered over UniFilter-96 GF/C (Revvity 6055690) filter plates. Filters are washed six times with 0.5 ml of ice-cold washing buffer (HEPES 25 mM pH 7.4, MgCl2 5 mM, CaCl2 1 mM) and 50 μl of Microscint 20 (Packard) are added in each well. The plates are incubated 15 min on an orbital shaker and then counted with a TopCount™ for 1 min/well. For IC50 to Ki determination, the Cheng Prusoff equation is used: Ki=IC50/(1+ [tracer]/Kd). [Tracer] is 0.1 nM as mentioned above.
# Chain of SSTR2 (P30874 whole entry): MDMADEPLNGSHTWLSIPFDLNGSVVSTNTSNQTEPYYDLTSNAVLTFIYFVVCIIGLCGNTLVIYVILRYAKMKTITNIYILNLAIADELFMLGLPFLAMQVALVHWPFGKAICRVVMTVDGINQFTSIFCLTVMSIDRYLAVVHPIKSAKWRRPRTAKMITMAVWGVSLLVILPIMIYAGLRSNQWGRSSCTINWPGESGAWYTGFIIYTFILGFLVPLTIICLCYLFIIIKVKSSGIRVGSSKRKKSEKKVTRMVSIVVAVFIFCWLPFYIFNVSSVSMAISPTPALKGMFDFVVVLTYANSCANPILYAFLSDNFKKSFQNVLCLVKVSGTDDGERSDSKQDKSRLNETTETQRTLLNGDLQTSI
row,SMILES,Ki [nM]
1,CC(C)[C@@H]1NC(=O)[C@H](CCCCN)NC(=O)[C@@H](Cc2c[nH]c3ccccc23)NC(=O)[C@H](Cc2ccc(O)cc2)NC(=O)[C@H](CCCCNC(=O)CCCCCNC(=O)CN2CCN3CCN4CCN(CC2)CC(=O)[O][Lu]([O]C(=O)C3)[O]C(=O)C4)N(C)C(=O)[C@H](Cc2ccccc2)NC1=O [RB-0002670] (cyclo(F[NMeK]([Ahx-DOTA(Lu)])Y[dW]KV)),< 1
2,CC(C)[C@@H]1NC(=O)[C@H](CCCCN)NC(=O)[C@@H](Cc2c[nH]c3ccccc23)NC(=O)[C@H](Cc2ccc(O)cc2)NC(=O)[C@H](CSCC(=O)NCCCCCCNC(=O)CN2CCN3CCN4CCN(CC2)CC(=O)[O][Lu]([O]C(=O)C3)[O]C(=O)C4)N(C)C(=O)[C@H](Cc2ccccc2)NC1=O [RB-0002674] (cyclo(F[NMeC](DOTA(Lu)NH(CH2)6NHCOCH2)Y[dW]KV)),1 to 3.33

# Same assay, conditions: radioligand competition, [125I]-Tyr11-Somatostatin 0.1 nM, membrane extracts; Ki from IC50 by Cheng Prusoff; read-out: SSTR2 Ki
row,SMILES,Ki [nM]
1,C[C@@H](O)[C@@H]1NC(=O)[C@H](CC2CCNCC2)NC(=O)[C@@H]([C@@H](C)c2c[nH]c3ccccc23)NC(=O)[C@H](Cc2ccc(O)cc2)NC(=O)[C@H](CCCCNC(=O)CCC2C(=O)[O][Ga]3[O]C(=O)CN4CCN(CCN2CC4)CC(=O)[O]3)N(C)C(=O)[C@H](Cc2ccccc2)NC1=O (mixture of isomers) [RB-0006285],1 to 3.33
2,C[C@@H](O)[C@@H]1NC(=O)[C@H](CN2CCNCC2)NC(=O)[C@@H]([C@@H](C)c2c[nH]c3ccccc23)NC(=O)[C@H](Cc2ccc(O)cc2)NC(=O)[C@H](CCCCNC(=O)CCC2C(=O)[O][Ga]3[O]C(=O)CN4CCN(CCN2CC4)CC(=O)[O]3)N(C)C(=O)[C@H](Cc2ccccc2)NC1=O (mixture of isomers) [RB-0006417],1 to 3.33
3,CC(C)[C@@H]1NC(=O)[C@H](CCCCN)NC(=O)[C@@H](Cc2c[nH]c3ccccc23)NC(=O)[C@H](Cc2ccc(O)cc2)NC(=O)[C@H](CCCNC(=O)CCCCCNC(=O)CN2CCN3CCN4CCN(CC2)CC(=O)[O][Lu]([O]C(=O)C3)[O]C(=O)C4)N(C)C(=O)[C@H](Cc2ccccc2)NC1=O [RB-0002672] (cyclo(F[NMeOrn]([Ahx-DOTA(Lu)])Y[dW]KV)),1 to 3.33
4,"CCN(C)CC(=O)[O][Lu]1[O]C(=O)CN(C)CCN(CCN(CC)CC(=O)NCCCCCCNC(=O)CCC[C@H]2C(=O)N[C@@H](CC3=CC=C(O)C=C3)C(=O)N[C@H](CC3=CNC4=C3C=CC=C4)C(=O)N[C@@H](CCCCN)C(=O)N[C@@H](C(C)C)C(=O)N[C@@H](CC3=CC=CC=C3)C(=O)N2C)CC(=O)[O]1 [RB-0002680] (HELM PEPTIDE1{F.[CN([C@@H](CCCC(=O)[*:3])C(=O)[*:2])[*:1]].Y.[dW].K.V}|CHEM1{[CCN(C)CC(=O)[O][Lu]1[O]C(=O)CN(C)CCN(CCN(CC)CC(=O)NCCCCCCN[*:1])CC(=O)[O]1]}$PEPTIDE1,CHEM1,2:R3-1:R1|PEPTIDE1,PEPTIDE1,1:R1-6:R2$$$V2.0)",1 to 3.33
5,C[C@@H](O)[C@@H]1NC(=O)[C@H](CCCCN)NC(=O)[C@@H](Cc2c[nH]c3ccccc23)NC(=O)[C@H](Cc2cccnc2)NC(=O)[C@H](CSCC(=O)NCCCCCCNC(=O)CN2CCN3CCN4CCN(CC2)CC(=O)[O][Lu]([O]C(=O)C3)[O]C(=O)C4)N(C)C(=O)[C@H](Cc2ccccc2)NC1=O [RB-0002946] (cyclo([3Pal][dW]KTF[NMeC](DOTA(Lu)NH(CH2)6NHCOCH2))),10 to 33.3
6,C[C@@H](O)[C@@H]1NC(=O)[C@H](CCCCN)NC(=O)[C@@H](Cc2c[nH]c3ccccc23)NC(=O)[C@H](Cc2ccncc2)NC(=O)[C@H](CSCC(=O)NCCCCCCNC(=O)CN2CCN3CCN4CCN(CC2)CC(=O)[O][Lu]([O]C(=O)C3)[O]C(=O)C4)N(C)C(=O)[C@H](Cc2ccccc2)NC1=O [RB-0002947] (cyclo([4Pal][dW]KTF[NMeC](DOTA(Lu)NH(CH2)6NHCOCH2))),3.33 to 10
7,C[C@@H](O)[C@@H]1NC(=O)[C@H](CCCCN)NC(=O)[C@@H](Cc2c[nH]c3ccccc23)NC(=O)[C@H](Cc2cccnc2)NC(=O)[C@H](CCSCC(=O)NCCCCCCNC(=O)CN2CCN3CCN4CCN(CC2)CC(=O)[O][Lu]([O]C(=O)C3)[O]C(=O)C4)N(C)C(=O)[C@H](Cc2ccccc2)NC1=O [RB-0003000] (cyclo([3Pal][dW]KTF[NMehCys](DOTA(Lu)NH(CH2)6NHCOCH2))),< 1
8,C[C@@H](O)[C@@H]1NC(=O)[C@H](CCCCN)NC(=O)[C@@H](Cc2c[nH]c3ccccc23)NC(=O)[C@H](Cc2ccncc2)NC(=O)[C@H](CCSCC(=O)NCCCCCCNC(=O)CN2CCN3CCN4CCN(CC2)CC(=O)[O][Lu]([O]C(=O)C3)[O]C(=O)C4)N(C)C(=O)[C@H](Cc2ccccc2)NC1=O [RB-0003002] (cyclo([4Pal][dW]KTF[NMehCys](DOTA(Lu)NH(CH2)6NHCOCH2))),< 1
9,CCN(C)CC(=O)[O][Lu]1[O]C(=O)CN(C)CCN(CCN(CC)CC(=O)NCCCCCC(=O)NCCCCC[C@H]2C(=O)N[C@@H](Cc3ccc(O)cc3)C(=O)N[C@H](Cc3c[nH]c4ccccc34)C(=O)N[C@@H](CCCCN)C(=O)N[C@@H]([C@@H](C)O)C(=O)N[C@@H](Cc3ccccc3)C(=O)N2C)CC(=O)[O]1 [RB-0003057],< 1
10,C[C@@H](O)[C@@H]1NC(=O)[C@H](CCCCN)NC(=O)[C@@H](Cc2c[nH]c3ccccc23)NC(=O)[C@H]([C@@H](C)c2ccccc2)NC(=O)[C@H](CCSCC(=O)NCCCCCCNC(=O)CN2CCN3CCN4CCN(CC2)CC(=O)[O][Lu]([O]C(=O)C3)[O]C(=O)C4)N(C)C(=O)[C@H](Cc2ccccc2)NC1=O [RB-0003136] (cyclo(F[NMehCys](DOTA(Lu)NH(CH2)6NHCOCH2)[X4][dW]KT)),1 to 3.33

# Same assay, conditions: read-out: SSTR2 Ki
row,SMILES,Ki [nM]
1,"CC(C)[C@@H]1NC(=O)[C@H](CCCCN)NC(=O)[C@@H](Cc2ccc(NC(N)=O)cc2)NC(=O)[C@H](Cc2ccc(O)cc2)NC(=O)[C@H](C)N(C)C(=O)[C@H](Cc2ccccc2)NC1=O [RB-0002328] (HELM PEPTIDE1{F.[meA].Y.[NC(=O)Nc1ccc(C[C@@H](N[*:1])C(=O)[*:2])cc1].K.V}$PEPTIDE1,PEPTIDE1,1:R1-6:R2$$$V2.0)",1 to 3.33
2,"CC(=O)NCCCC[C@H]1C(=O)N[C@@H](Cc2ccc(O)cc2)C(=O)N[C@H](Cc2c[nH]c3ccccc23)C(=O)N[C@@H](CCCCN)C(=O)N[C@@H](C(C)C)C(=O)N[C@@H](Cc2ccccc2)C(=O)N1C [RB-0002329] (HELM PEPTIDE1{F.[CN([C@@H](CCCCN[*:3])C(=O)[*:2])[*:1]].Y.[dW].K.V}|PEPTIDE2{[ac]}$PEPTIDE1,PEPTIDE2,2:R3-1:R2|PEPTIDE1,PEPTIDE1,1:R1-6:R2$$$V2.0)",1 to 3.33
3,"CC(=O)NCCCC[C@@H]1C(=O)N[C@@H](Cc2ccc(O)cc2)C(=O)N[C@H](Cc2c[nH]c3ccccc23)C(=O)N[C@@H](CCCCN)C(=O)N[C@@H](C(C)C)C(=O)N[C@@H](Cc2ccccc2)C(=O)N1C [RB-0002593] (HELM PEPTIDE1{F.[CN([C@H](CCCCN[*:3])C(=O)[*:2])[*:1]].Y.[dW].K.V}|PEPTIDE2{[ac]}$PEPTIDE1,PEPTIDE2,2:R3-1:R2|PEPTIDE1,PEPTIDE1,1:R1-6:R2$$$V2.0)",3.33 to 10
4,C[C@@H](O)[C@@H]1NC(=O)[C@H](CCCCN)NC(=O)[C@@H](Cc2c[nH]c3ccccc23)NC(=O)[C@H](Cc2ccc(O)cc2)NC(=O)[C@H](C)N(C)C(=O)[C@H](Cc2ccccc2)NC1=O [RB-0002594],< 1
5,CC(C)[C@@H]1NC(=O)[C@H](CCCCN)NC(=O)[C@@H](Cc2c[nH]c3ccccc23)NC(=O)[C@H](Cc2ccc(O)c(O)c2)NC(=O)[C@H](C)N(C)C(=O)[C@H](Cc2ccccc2)NC1=O [RB-0002595],< 1
6,"CC(C)[C@@H]1NC(=O)[C@H](CCCCN)NC(=O)[C@@H](Cc2c[nH]c3ccccc23)NC(=O)[C@H](C(c2ccccc2)c2ccccc2)NC(=O)[C@H](C)N(C)C(=O)[C@H](Cc2ccccc2)NC1=O [RB-0002596] (HELM PEPTIDE1{[O=C([C@@H](N[*:1])C(c1ccccc1)c1ccccc1)[*:2]].[dW].K.V.F.[meA]}$PEPTIDE1,PEPTIDE1,1:R1-6:R2$$$V2.0)",< 1
7,CC(C)[C@@H]1NC(=O)[C@H](CCCCN)NC(=O)[C@@H](Cc2c[nH]c3ccccc23)NC(=O)[C@H](Cc2ccc(NC(=O)C3CC(=O)NC(=O)N3)cc2)NC(=O)[C@H](C)N(C)C(=O)[C@H](Cc2ccccc2)NC1=O (stereo partly drawn) [RB-0002597] (cyclo(F[NMeA][Phe(4-NH2)](ξDihydroorotoyl)[dW]KV)),1 to 3.33

# Same assay, conditions: read-out: SSTR2 Ki; radioligand competition, [125I]-Tyr11-Somatostatin 0.1 nM, membrane extracts; Ki from IC50 by Cheng Prusoff
row,SMILES,Ki [nM]
1,"CC(C)[C@@H]1NC(=O)[C@H](CCCCN)NC(=O)[C@@H](Cc2c[nH]c3ccccc23)NC(=O)[C@H](Cc2ccc(O)cc2)NC(=O)[C@H](CCC(=O)NCCCCCCNC(=O)CN2CCN(CC(=O)O)CCN(CC(=O)O)CCN(CC(=O)O)CC2)N(C)C(=O)[C@H](Cc2ccccc2)NC1=O [RB-0002678] (HELM PEPTIDE1{F.[CN([C@@H](CCC(=O)[*:3])C(=O)[*:2])[*:1]].Y.[dW].K.V}|CHEM1{[O=C(O)CN1CCN(CC(=O)O)CCN(CC(=O)NCCCCCCN[*:1])CCN(CC(=O)O)CC1]}$PEPTIDE1,CHEM1,2:R3-1:R1|PEPTIDE1,PEPTIDE1,1:R1-6:R2$$$V2.0)",3.33 to 10
2,C[C@@H](O)[C@@H]1NC(=O)[C@H](CCCCN)NC(=O)[C@@H](Cc2c[nH]c3ccccc23)NC(=O)[C@H](Cc2ccc(O)cc2)NC(=O)[C@H](CCCCC(=O)NCCCCCCNC(=O)CN2CCN(CC(=O)O)CCN(CC(=O)O)CCN(CC(=O)O)CC2)N(C)C(=O)[C@H](Cc2ccccc2)NC1=O [RB-0003055],< 1
